Laboratory results taken from patent publication US7122569B2, “Ethylene glycol esters as photoactive agents” (priority 1997, dated 2006).

How the values were obtained:
L1210 cells = test: In vitro photocytotoxicity on L1210 cells, 690 nm light 5 J/cm^2, MTT; type: cell-based, murine; details: 690 nm 5 J/cm^2
Experimental: (§1) Either L1210 cells or the dendritic cell line D2SC/1 was incubated for one hour at 37° C. with either A-EA6 or BPD-MA. After removal of excess drug, the cells were exposed to 690 nm light at 5 J/cm^2 light. Cell survival was determined 18–24 hours later using the MTT colorimetric assay described in Example 5. Percent cells killed was calculated by reference to cells exposed to light only. […] The open circles represent A-EA6 plus serum; the closed circles represent BPD-MA plus serum; open squares represent A-EA6 in the absence of serum; and closed squares represent BPD-MA in the absence of serum.

[1] = tested on: dendritic cell line D2SC/1; test: In vitro photocytotoxicity on dendritic cell line D2SC/1, 690 nm light 5 J/cm^2, MTT; type: cell-based; details: dendritic cells, 5% fetal calf serum, 690 nm 5 J/cm^2
Experimental: as §1

MHC I receptors = test: Surface expression of MHC I receptors on dendritic cells after PDT, flow cytometry; type: cell-based; details: 690 nm 5 J/cm^2, 3 hours post-treatment
Experimental: The cells were treated with 690 nm light at 5 J/cm^2 and then labeled with the appropriate antibody 3 hours post-treatment and assessed by flow cytometry. The results were measured as the percent of the mean channel fluorescence intensity for light-treated control cells.

[2] = tested on: stress pathway kinases c-jun and HSP27; test: PDT effect on stress pathway kinases in HL-60 cells; type: cell-based; details: sublethal concentrations
Text: (§2) The conditions of the study set forth in Example 11 were repeated using HL-60 cells as the target and comparing the effects of A-EA6 and BPD-MA on cytotoxicity, on the mitogenic pathway kinase p70 S6K, and on the stress pathway kinases c-jun and HSP27.

[3] = tested on: mitogenic pathway kinase p70 S6K; test: PDT effect on mitogenic pathway kinase in HL-60 cells; type: cell-based; details: sublethal concentrations
Text: as §2

caspases = test: Caspase activation in HL-60 cells after PDT; type: cell-based
Experimental: The effect on caspase activation in HL-60 cells was also measured. […] This effect is desirable as it is associated with apoptosis. Using apoptosis to remove unwanted cells causes the least effect on surrounding normal cells and tissues.

HL-60 cells = test: DNA fragmentation in HL-60 cells after PDT; type: cell-based
M1 tumors = test: In vivo photodynamic therapy in mice harboring M1 tumors, tumor-free on day 7; details: 1 mg/kg IV, 50 J/cm^2 690 nm
Text: This was followed by whole body irradiation with 50 J/cm^2 of 690 nm laser light at various times after administration of the drug.

[4] = tested on: antigen-induced ear swelling; test: Immunomodulatory activity, whole-body PDT, suppression of ear swelling; type: in vivo, mice; details: red LED light 15 J/cm^2
Experimental: Flanks of control and test mice were painted with the antigen DMFB and their ears were challenged 5 days later by pasting with the same compound. […] The percent suppression of ear swelling was calculated in comparison to controls.

SMILES: C=Cc1c(C)c2cc3nc(cc4[nH]c(cc5nc(cc1[nH]2)C(C)=C5CCC(=O)OCCO)c(CCC(=O)OCCO)c4C)C1(C)C3=CC=C(C(=O)OC)C1C(=O)OC (stereo not shown) [A-EA6]
- cytotoxicity compared with BPD-MA (L1210 cells; absence of serum): comparable cytotoxicity to BPD-MA
- cytotoxicity compared with BPD-MA (L1210 cells; presence of serum): markedly more toxic
- LD50 [1]: 2.7 ng/mL
- reduction of MHC I mean channel fluorescence vs light-treated control cells (MHC I receptors; 1 ng/ml): approximately 25%
- reduction of MHC I mean channel fluorescence vs light-treated control cells (MHC I receptors; 2.5 ng/ml): approximately 25%
- activation of stress pathway kinases compared with BPD-MA [2]: stronger activation of the stress pathway kinases
- inhibition of mitogenic pathway kinases compared with BPD-MA [3]: stronger inhibition of the mitogenic pathway kinases
- caspase activation compared with BPD-MA (caspases): stronger activation of caspases
- percent DNA fragmentation compared with BPD-MA (HL-60 cells): effective at lower concentrations than BPD-MA
- Day 7 tumor-free animals (M1 tumors; irradiation 15 min post i.v.): 2/2
- Day 7 tumor-free animals (M1 tumors; irradiation 30 min post i.v.): 6/6
- Percent suppression of ear swelling ([4]; 0.3 mg/kg IV): 59%
- Percent suppression of ear swelling ([4]; 1.0 mg/kg IV): 68%
